Experimental data: US20240247301A1, “DIAGNOSTIC ASSAY FOR CLASSIC INBORN GALACTOSEMIA” (Ohio State Innovation Foundation, priority 2022, published 2024)
Several values for one entry are separate records, joined by “and”; a condition that tells them apart may be missing. Equal entries are not always repeated. Where two headings read alike, the source gives them in different places.

Experiments:
[1] = target: Salmonella typhimurium YihX, recombinant wild type, SEQ ID NO: 2 (Salmonella enterica, UniProt Q7CPC8); test: Kinetic studies of YihX with Glc 1-P and Gal 1-P; type: biochemical; conditions: YihX refolded after denaturing purification
Sequence of Salmonella typhimurium YihX, recombinant wild type, SEQ ID NO: 2 (Q7CPC8 entry or part of it): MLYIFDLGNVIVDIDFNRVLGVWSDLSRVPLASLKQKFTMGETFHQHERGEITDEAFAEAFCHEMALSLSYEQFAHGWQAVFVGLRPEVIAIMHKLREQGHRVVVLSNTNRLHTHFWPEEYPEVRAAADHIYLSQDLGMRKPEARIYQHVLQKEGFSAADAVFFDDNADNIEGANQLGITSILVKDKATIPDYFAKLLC
Description: Salmonella YihX was purified after overexpression in E. coli BL21 (DE3) pLysS cells. His6-YihX was purified under denaturing conditions using immobilized metal-affinity chromatography. Following purification, YihX was refolded by stepdown dialysis to remove the denaturant.

[2] = tested on: E. coli YidA; conditions: Kuznetsova et al. 2006; cited from earlier work
[3] = target: Salmonella typhimurium YidA, recombinant wild type, SEQ ID NO: 1 (Salmonella enterica, UniProt Q8ZKY8); test: YidA phosphatase activity (malachite green), dephosphorylation of Glc-1-P; type: biochemical
Sequence of Salmonella typhimurium YidA, recombinant wild type, SEQ ID NO: 1 (Q8ZKY8 entry or part of it): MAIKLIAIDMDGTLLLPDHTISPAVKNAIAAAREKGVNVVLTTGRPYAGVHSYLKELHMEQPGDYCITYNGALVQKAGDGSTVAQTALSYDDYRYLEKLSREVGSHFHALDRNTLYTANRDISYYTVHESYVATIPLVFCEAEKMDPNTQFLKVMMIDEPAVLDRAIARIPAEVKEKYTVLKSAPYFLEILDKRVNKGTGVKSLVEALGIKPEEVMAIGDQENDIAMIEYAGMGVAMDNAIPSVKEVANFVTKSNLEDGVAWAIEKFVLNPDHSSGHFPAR
Description: The sugar phosphate phosphatase produced from an engineered cell can be identical to a naturally occurring one, such as YidA or YihX, but placed within a cell in which it is not naturally produced. Examples of this approach are given throughout. The sequence for YidA from Salmonella typhimurium can be found, for example, in NC_492731.1. This sequence corresponds to SEQ ID NO: 1. The gene ID is 1255358. The sequence for YihX from Salmonella typhimurium can be found, for example, in NC_462906.1. This corresponds to SEQ ID NO: 2. The gene ID is 1255552. In one example, genes encoding these proteins can be placed within a cell in which it is not naturally occurring.
Nearly homogeneous recombinant Salmonella YidA by overexpressing it in E. coli SixPack cells were obtained (Lipinszki et al. 2018) (FIG. 3A). N-terminal fusions with a small ubiquitin-like modifier (SUMO) domain were engineered to enhance solubility (Marblestone et al. 2006) and a His6 tag to facilitate affinity purification (FIG. 3A). […] Since YidA is a Mg^2+-dependent phosphatase, its activity with Glc-1-P in the presence of 0-5 mM MgCl2 was first tested and determined that 3 mM MgCl2 was optimal (FIG. 5). […]

[4] = target: T1, Duarte GalT (galactose-1-phosphate uridylyltransferase, Duarte variant) (Homo sapiens, UniProt P07902, N314D); test: Duarte GalT-PGM-G6PDH coupled assay (traditional); type: biochemical
T1 construct: coupled to YidA or PGM-G6PDH (helper enzymes)
T1 sequence (P07902 whole entry N314D): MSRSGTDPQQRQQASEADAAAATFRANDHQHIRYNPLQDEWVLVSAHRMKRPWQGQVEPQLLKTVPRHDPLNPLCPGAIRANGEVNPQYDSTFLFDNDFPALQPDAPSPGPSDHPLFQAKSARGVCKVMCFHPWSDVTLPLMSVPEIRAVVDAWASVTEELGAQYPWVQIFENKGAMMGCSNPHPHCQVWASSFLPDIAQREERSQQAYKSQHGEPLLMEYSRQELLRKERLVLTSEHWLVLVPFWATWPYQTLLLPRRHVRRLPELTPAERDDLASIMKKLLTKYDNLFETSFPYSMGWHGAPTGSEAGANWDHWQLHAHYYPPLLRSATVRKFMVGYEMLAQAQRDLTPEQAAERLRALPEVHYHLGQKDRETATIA
Method: It was sought to compare the Duarte GalT activity determined using the YidA assay versus the existing method. To this end, measurements were conducted using the traditional PGM-G6PDH coupled assay (McCorvie et al. 2013). By titrating the coupled enzymes, the threshold that permits the most sensitive detection was first determined.
(§1) Transformation and overexpression of GalT were performed as described elsewhere (Lai et al. 2021). For purification, a single bacterial colony expressing GalT was used to inoculate 2.5 mL of Dynamite growth medium (Taylor et al. 2017) supplemented with […] kanamycin and grown overnight at 37° ° C. with shaking. This saturated overnight culture was used to seed 250 mL of fresh dynamite medium containing the antibiotic. […]
(§2) Recombinant GalT was purified using the same protocol as that described above for YidA. The concentration of the His6-tagged GalT was determined using a molar extinction coefficient (85,620 M^−1 cm^−1) at 280 nm, and the final preparation was stored at −80° C. in small aliquots, which were subsequently thawed immediately before use in biochemical assays.
An NADH standard curve (data not shown) was generated using relative fluorescence units (RFUs) versus different concentrations of NADH and used as a reference for calculating the NADH produced from the Duarte GalT-PGM-G6PDH coupled assay. […]

[5] = tested on: wild-type GalT (galactose-1-phosphate uridylyltransferase); conditions: cited from earlier work; for Km: read-out: Km (for Gal-1-P)
[6] = target: T1, Duarte GalT (galactose-1-phosphate uridylyltransferase, Duarte variant); test: Duarte GalT-YidA coupled assay (SUMO tag removed from YidA); type: biochemical
Method: Next, it was sought to obtain recombinant GalT for proof-of-concept assays. The ready availability of the Duarte GalT clone from Addgene (GALTA-c001) led to use of this enzyme in the current studies.
as §1, §2
These 2-μL aliquots were added to a 384-well plate which were pre-dispensed to test wells 18 μL of water and 5 μL of malachite green reagent. […] To determine the Km and kcat values, the initial velocity calculated at each substrate concentration was subject to the Michaelis-Menten curve-fitting option in Kaleidagraph (Synergy Software).

[7] = mean ± SD of three independent trials
[8] = McCorvie et al., 2013 (text: 2014)

Row | SMILES | specificity for Glc 1-P over Gal 1-P [1] [fold] | Km [2] [µM] | kcat [2] [s⁻¹] | kcat ([3]; mean ± SE of two independent trials) [s⁻¹] | kcat ([3]; single trials, ± curve-fit error, pH 8, 37° C., 3 mM MgCl2) | kcat [4, 7] [s⁻¹] | kcat ([4]; single trials, ± curve-fit error, pH 8, 37° C., 0.8 mM UDP-glucose) | kcat ([5]; Crews et al., 2000) | kcat [5, 8] [min⁻¹] | kcat ([5]; Tang et al., 2012, table value calculated from reported Vmax with 44 kDa) | Km ([5]; Crews et al., 2000) [µM] | Km [5, 8] [µM] | Km ([5]; Tang et al., 2012) [µM] | kcat [6, 7] | kcat ([6]; single trials, ± curve-fit error, pH 8.0, 37° C., 1 mM UDP-glucose)
1 | O=P(O)(O)O[C@H]1O[C@H](CO)[C@@H](O)[C@H](O)[C@H]1O [Glc-1-P, α-D-glucose-1-phosphate] | 36 | 210 | 20 | 14.2 ± 0.35 | 13.9 ± 1.07 s⁻¹ and 14.6 ± 1.05 s⁻¹ | – | – | – | – | – | – | – | – | – | –
2 | O=P(O)(O)O[C@H]1O[C@H](CO)[C@H](O)[C@H](O)[C@H]1O [Gal-1-P, galactose-1-phosphate] | – | – | – | – | – | 4.32 ± 0.12 | 4.45 ± 0.2 s⁻¹ and 4.3 ± 0.067 s⁻¹ and 4.22 ± 0.2 s⁻¹ | 5,880 min^−1 | 816 | 2,400 min^−1 and 2,122* min^−1 | 400 | 290 | 1250 | 14.2 ± 1.33 s⁻¹ and 14.1 ± 0.75 s⁻¹ | 14.2 ± 1.33 s⁻¹ and 13.3 ± 1.05 s⁻¹ and 14.7 ± 1.17 s⁻¹
